In US8551978B2 (Theravance, Inc., priority 2009, dated 2013):
Where a name gives a salt, the structure may show the parent alone. Read-outs that look alike come from different tables or passages of the source.

Key:
[1] = system: MCh-induced bronchoconstriction; assay: Einthoven assay: bronchoprotection against methacholine (MCh)-induced bronchoconstriction; format: in vivo, rat; settings: for inhibition in vivo at 0.1 mg: inhaled or nasal, read-out: Broncho. at 24 h
Procedure: This assay measures the ability of a test compound to provide bronchoprotection against methacholine (MCh)-induced bronchoconstriction in a rat. Male Sprague-Dawley rats (Harlan, Indianapolis, Ind.), weighing between 200 g and 350 g, were used for all studies. Test compound or vehicle (sterile deionized water) were dosed by inhalation (1H) over a 10 min period in a pie shaped inhalation chamber (R+S Molds, San Carlos, Calif.) using 5 mL of dosing solution. […] Rats were dosed with 100 μg of test compound unless otherwise indicated. At predetermined time points, rats were anesthetized with an intraperitoneal (IP) injection of 120 mg/kg inactin (thiobutabarbital). A supplemental dose (40 mg/kg, IP) was administered if the animal responded to physical stimuli (e.g. toe pinch). The surgical site was shaved and a 1-2 cm midline incision of the ventral aspect of the neck was made. The jugular vein was isolated and cannulated with a saline-filled polyethylene catheter (PE-50) to allow IV infusion of MCh. Trachea was dissected free and cannulated with a 14G needle (#NE-014, Small Parts, Miami Lakes, Fla.). After placement of the tracheal cannula, each rat was ventilated using a respirator (Model 683, Harvard Apparatus, Inc., MA) set at a stroke volume of 1 mL/100 g body weight (but not exceeding 2.5 mL volume) and a rate of 90 strokes per minute. A T-connector was placed along the respirator expiratory tubing to allow for measurement of changes in ventilation pressure (VP) using a Biopac transducer that was connected to a Biopac […]) pre-amplifier. Body temperature was maintained at 37° C. using a heating pad. Changes in VP were recorded using the Acknowledge Data Collection Software (Santa Barbara, Calif.). Baseline values were collected for at least 2.5 min. Rats were then challenged with non-cumulative intravenous (IV) infusions of 40 and 80 μg/kg MCh. MCh was infused intravenously for 2.5 minutes from a syringe pump (sp210iw, World Precision Instruments, Inc., Sarasota, Fla.) at a rate of 2 mL/kg/min, with a 2 minute interval between the two doses of MCh. Changes in ventilation pressure (cm H2O) in treated animals are expressed as % inhibition of MCh response relative to control animals. Other bronchoconstrictors, such as histamine and acetylcholine, can be used in place of MCh in this assay. Additionally, guinea pigs can be used instead of rats. […] Inhibition greater than or equal to 30 percent at 24 h is indicative of a long duration of action.

hM3 muscarinic receptor = hM3 muscarinic receptor (Homo sapiens (Human), UniProt P20309); assay: Radioligand binding assay for muscarinic receptors ([3H]-NMS displacement, CHO cell membranes)
Procedure: The cells were grown in a 5% CO2, 37° C. incubator and lifted with 2 mM EDTA in dPBS. Cells were collected by 5 minute centrifugation at 650×g, and cell pellets were either stored frozen at −80° C. or membranes were prepared immediately for use. For membrane preparation, cell pellets were resuspended in lysis buffer and homogenized with a Polytron PT-2100 tissue disrupter (Kinematica AG; 20 seconds×2 bursts). Crude membranes were centrifuged at 40,000×g for 15 minutes at 4° C. The membrane pellet was then resuspended with re-suspension buffer and homogenized again with the Polytron tissue disrupter. The protein concentration of the membrane suspension was determined by the method described in Lowry et al., 1951, […], 193, 265. All membranes were stored frozen in aliquots at −80° C. or used immediately. […] The membranes were briefly homogenized using a Polytron tissue disruptor (10 seconds) prior to assay plate addition. […] The test compounds were initially dissolved to a concentration of 400 μM in dilution buffer and then serially diluted 5× with dilution buffer to final concentrations ranging from 10 μM to […]. The order of addition and volumes added to the assay plates were as follows: 25 μL radioligand, 25 μL diluted test compound, and 50 μL membranes. Assay plates were incubated for 6 hours at 37° C. […] Filter plates were rinsed three times with wash buffer (10 mM HEPES) to remove unbound radioactivity. The plates were then air-dried and 50 μL Microscint-20 liquid scintillation fluid (PerkinElmer, Inc.) were added to each well. The plates were then counted in a PerkinElmer Topcount liquid scintillation counter (PerkinElmer, Inc.). Binding data were analyzed by nonlinear regression analysis with the GraphPad Prism Software package (GraphPad Software, Inc., San Diego, Calif.) using the one-site competition model. […] These summary statistics were then converted back to K; values for data reporting.

hβ2 adrenergic receptor = hβ2 adrenergic receptor (Homo sapiens (Human), UniProt P07550); assay: Assay for determining adrenergic receptor agonist potency (cAMP Flashplate, HEK-293 cells); format: cell-based; settings: data rounded to nearest 1 nM
Procedure: The cell monolayer was lifted with 2 mM EDTA in PBS. Cells were pelleted by centrifugation at 1,000 rpm, and cell pellets were either stored frozen at −80° C. or membranes were prepared immediately for use. cAMP assays were performed in a radioimmunoassay format using the Flashplate Adenylyl Cyclase Activation Assay System with [^125I]-cAMP (NEN SMP004, PerkinElmer Life Sciences Inc., Boston, Mass.), according to the manufacturers instructions. […] Cells were rinsed with PBS and detached in dPBS (Dulbecco's Phosphate Buffered Saline, without CaCl2 and MgCl2) containing 2 mM EDTA or Trypsin-EDTA solution (0.05% trypsin/0.53 mM EDTA). After counting cells in Coulter cell counter, cells were pelleted by centrifugation at 1,000 rpm and re-suspended in stimulation buffer containing TBMX (PerkinElmer Kit) pre-warmed to room temperature to a concentration of 1.6×10^6 to 2.8×10^6 cells/mL. About 40,000 to 80,000 cells per well were used in this assay. […] Reactions were incubated for 10 min at 37° C. and stopped by adding 100 μL of cold detection buffer containing [^125I]-cAMP (NEN SMP004, PerkinElmer Life Sciences, Boston, Mass.). […] Data were analyzed by nonlinear regression analysis with the GraphPad Prism Software package (GraphPad Software, Inc., San Diego, Calif.) with the sigmoidal equation. The Cheng-Prusoff equation (Cheng Y, and Prusoff W H., Biochemical Pharmacology, 1973, 22, 23, 3099-108) was used to calculate the EC50 values.

[2] = rat, 100 μg by inhalation, 24 h after administration
[3] = hM3 Muscarinic Receptor Binding, data rounded to nearest 0.1 nM

hβ2 adrenergic receptor, sequence (P07550 whole entry): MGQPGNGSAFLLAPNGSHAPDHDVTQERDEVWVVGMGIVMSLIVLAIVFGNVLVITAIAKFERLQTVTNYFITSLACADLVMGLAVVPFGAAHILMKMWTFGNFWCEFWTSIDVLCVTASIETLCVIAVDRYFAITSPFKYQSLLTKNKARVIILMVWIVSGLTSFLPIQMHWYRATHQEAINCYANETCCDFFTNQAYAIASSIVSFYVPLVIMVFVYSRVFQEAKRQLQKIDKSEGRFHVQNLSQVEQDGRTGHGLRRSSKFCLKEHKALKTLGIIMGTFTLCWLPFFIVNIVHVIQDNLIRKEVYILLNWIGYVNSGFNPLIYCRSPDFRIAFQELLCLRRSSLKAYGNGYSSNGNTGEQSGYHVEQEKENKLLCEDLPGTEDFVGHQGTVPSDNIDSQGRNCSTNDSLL
hM3 muscarinic receptor, sequence (P20309 whole entry): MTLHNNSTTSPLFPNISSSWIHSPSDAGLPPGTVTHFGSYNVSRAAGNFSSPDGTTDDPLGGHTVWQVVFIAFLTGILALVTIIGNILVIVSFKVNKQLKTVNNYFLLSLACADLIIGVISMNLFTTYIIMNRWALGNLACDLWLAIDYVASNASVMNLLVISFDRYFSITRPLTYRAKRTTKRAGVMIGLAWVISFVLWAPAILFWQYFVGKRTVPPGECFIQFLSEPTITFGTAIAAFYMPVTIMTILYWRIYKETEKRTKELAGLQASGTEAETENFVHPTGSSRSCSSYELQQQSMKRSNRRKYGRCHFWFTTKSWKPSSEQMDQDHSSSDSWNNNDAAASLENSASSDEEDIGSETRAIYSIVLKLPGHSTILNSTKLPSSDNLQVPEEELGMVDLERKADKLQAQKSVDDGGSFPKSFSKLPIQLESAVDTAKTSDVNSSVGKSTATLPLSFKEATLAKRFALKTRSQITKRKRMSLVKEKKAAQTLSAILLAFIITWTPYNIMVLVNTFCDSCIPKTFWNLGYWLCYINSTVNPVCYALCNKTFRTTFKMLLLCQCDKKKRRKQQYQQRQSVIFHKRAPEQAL

Structure (SMILES)	Broncho. at 24 h [1, 2]	Ki (hM3 muscarinic receptor) [nM]	EC50 (hβ2 adrenergic receptor) [nM]	Ki (hM3 muscarinic receptor; [3]) [nM]	inhibition in vivo at 0.1 mg ([1]; Rattus norvegicus, 24 h) [%]	inhibition in vivo at 0.1 mg [1, 2] [%]
Cc1cc(CNC[C@H](O)c2ccc(O)c3[nH]c(=O)ccc23)ccc1NC(=O)c1cccc(N(C)C(=O)CCN2CCC(OC(=O)Nc3ccccc3-c3ccccc3)CC2)c1 [Compound I-27]	No	0.1	1			
C[C@@H](Cc1cccc(CCNC(=O)c2ccc(N(C)C(=O)CCN3CCC(OC(=O)Nc4ccccc4-c4ccccc4)CC3)cc2)c1)NC[C@H](O)c1ccc(O)c2[nH]c(=O)ccc12 [Compound I-56]	No		1	0.2		
Cc1cc(NC(=O)CCCCN(C)C(=O)CCN2CCC(OC(=O)Nc3ccccc3-c3ccccc3)CC2)c(C)cc1CNC[C@H](O)c1ccc(O)c2[nH]c(=O)ccc12 [Compound I-18, Biphenyl-2-ylcarbamic Acid 1-(2-{[4-(4-{[(R)-2-Hydroxy-2-(8-hydroxy-2-oxo-1,2-dihydroquinolin-5-yl)ethylamino]methyl}-2,5-dimethylphenylcarbamoyl)butyl]methylcarbamoyl}ethyl)piperidin-4-yl Ester Ditrifluoroacetic Acid Salt]		0.1	1		> 30	
COc1ccc(CC(=O)NCc2ccc(N(C)C(=O)CCN3CCC(OC(=O)Nc4ccccc4-c4ccccc4)CC3)cc2)cc1C[C@@H](C)NC[C@H](O)c1ccc(O)c2[nH]c(=O)ccc12 [Compound I-82]			1	0.1		> 30
C[C@H](Cc1ccc(CNC(=O)c2cccc(N(C)C(=O)CCN3CCC(OC(=O)Nc4ccccc4-c4ccccc4)CC3)c2)cc1)NC[C@H](O)c1ccc(O)c2[nH]c(=O)ccc12 [Compound I-48]		0.3	1			> 30
C[C@H](Cc1cccc(CNC(=O)Cc2ccc(N(C)C(=O)CCN3CCC(OC(=O)Nc4ccccc4-c4ccccc4)CC3)cc2)c1)NC[C@H](O)c1ccc(O)c2[nH]c(=O)ccc12 [Compound I-68]		0.1	1			> 30
C[C@H](Cc1cccc(CCNC(=O)c2ccc(N(C)C(=O)CCN3CCC(OC(=O)Nc4ccccc4-c4ccccc4)CC3)cc2)c1)NC[C@H](O)c1ccc(O)c2[nH]c(=O)ccc12 [Compound I-55]			1	0.2		> 30
Cc1ccc(C(=O)Nc2cccc(CC(C)NC[C@H](O)c3ccc(O)c4[nH]c(=O)ccc34)c2)cc1N(C)C(=O)CCN1CCC(OC(=O)Nc2ccccc2-c2ccccc2)CC1 (stereo partly drawn) [Compound I-37]	No	0.2	1			
CN(C(=O)CCN1CCC(OC(=O)Nc2ccccc2-c2ccccc2)CC1)c1ccc(CC(=O)NCc2ccc(CCNC[C@H](O)c3ccc(O)c4[nH]c(=O)ccc34)cc2)cc1 [Compound I-64]	No		1	0.3		
CC(Cc1cccc(CC(=O)NCc2ccc(N(C)C(=O)CCN3CCC(OC(=O)Nc4ccccc4-c4ccccc4)CC3)cc2)c1)NC[C@H](O)c1ccc(O)c2[nH]c(=O)ccc12 (stereo partly drawn) [Compound I-77]		0.1	1			> 30
COc1cc(NC(=O)CCCCN(C)C(=O)CCN2CCC(OC(=O)Nc3ccccc3-c3ccccc3)CC2)ccc1CNC[C@H](O)c1ccc(O)c2[nH]c(=O)ccc12 [Compound I-17]		0.1	1			> 30
CN(CCCCC(=O)Nc1cccc(CCNC[C@H](O)c2ccc(O)c3[nH]c(=O)ccc23)c1)C(=O)CCN1CCC(OC(=O)Nc2ccccc2-c2ccccc2)CC1 [Compound I-20]		0.1	1			> 30
COc1cc(CNC[C@H](O)c2ccc(O)c3[nH]c(=O)ccc23)ccc1NC(=O)c1cccc(N(C)C(=O)CCN2CCC(OC(=O)Nc3ccccc3-c3ccccc3)CC2)c1 [Compound I-29]	No		1	0.1		
CN(CCCC(=O)Nc1cccc(CCNC[C@H](O)c2ccc(O)c3[nH]c(=O)ccc23)c1)C(=O)CCN1CCC(OC(=O)Nc2ccccc2-c2ccccc2)CC1 [Compound I-7, Biphenyl-2-ylcarbamic Acid 1-(2-{[3-(3-{2-[(R)-2-Hydroxy-2-(8-hydroxy-2-oxo-1,2-dihydroquinolin-5-yl)ethylamino]ethyl}phenylcarbamoyl)-propyl]methylcarbamoyl}ethyl)piperidin-4-yl Ester Ditrifluoroacetic Acid Salt]		0.1	1		> 30	
Cc1ccc(C(=O)Nc2ccc(CNC[C@H](O)c3ccc(O)c4[nH]c(=O)ccc34)cc2)cc1N(C)C(=O)CCN1CCC(OC(=O)Nc2ccccc2-c2ccccc2)CC1 [Compound I-26]		0.2	1			> 30
CC(Cc1cccc(CC(=O)NCCCN(C)C(=O)CCN2CCC(OC(=O)Nc3ccccc3-c3ccccc3)CC2)c1)NC[C@H](O)c1ccc(O)c2[nH]c(=O)ccc12 (stereo partly drawn) [Compound I-11]		0.1	1			> 30
CC(Cc1cccc(NC(=O)c2cccc(N(C)C(=O)CCN3CCC(OC(=O)Nc4ccccc4-c4ccccc4)CC3)c2)c1)NC[C@H](O)c1ccc(O)c2[nH]c(=O)ccc12 (stereo partly drawn) [Compound I-36]		0.2	1			> 30
Cc1cc(CNC[C@H](O)c2ccc(O)c3[nH]c(=O)ccc23)ccc1NC(=O)CCCN(C)C(=O)CCN1CCC(OC(=O)Nc2ccccc2-c2ccccc2)CC1 [Compound I-2]	No	0.1	1			
COc1ccc(CC(=O)NCc2ccc(N(C)C(=O)CCN3CCC(OC(=O)Nc4ccccc4-c4ccccc4)CC3)cc2)cc1CC(C)NC[C@H](O)c1ccc(O)c2[nH]c(=O)ccc12 (stereo partly drawn) [Compound I-81]			1	0.1		> 30
